Entries after “also recorded” stand apart in the source; their conditions may differ.
What was measured:
[1] = tested on: HeLa (human cervical cancer) cell line; assay: Cell Titer-Glo luminescence-based cell growth inhibition assay, HeLa; settings: HeLa cells, 72 hours incubation, spread in brackets
Protocol: (§1) The cell growth inhibition effects of gold(I) complexes 1-4 and cisplatin were measured by the Cell Titer-Glo® luminescence-based assay against the A549 (human lung carcinoma), HeLa (human cervical cancer), and HepG2 (human liver cancer) cell lines according to manufacturer's protocol. Briefly, the cell suspensions were added to each well of 384-w plate at a suitable density (total volume of 40 μL). The margin wells of plate were filled with PBS buffer. The gold(I) complexes were added at various concentrations in triplicate (10 μL solutions of the complex added to the plate), then the plate was incubated for 72 hours in 5% CO2 incubator at 37° C. After that the Cell Titer reagent was added to each tested well and stirred for 2 minutes on an orbital shaker. […] Luminescence signals were measured on PHERAstar Plus. […] The potential effect of the testing complexes on cell growth inhibition expressed as IC50 values was calculated by the formula below: Cell growth Inhibition %=100-100*(Luminescencecomplex)/(LuminescenceDMSO) Cell viability %=100*(Luminescencecomplex)/(LuminescenceDMSO)
(§2) The gold(I) complexes 1-4 and cisplatin were examined for their cell growth inhibition effects against A549, HeLa, and HepG2 human cancer cell lines using Cell Titer-Glo® luminescence-based assay. […]

[2] = tested on: HepG2 (human liver cancer) cell line; assay: Cell Titer-Glo luminescence-based cell growth inhibition assay, HepG2; settings: HepG2 cells, 72 hours incubation, spread in brackets
Protocol: as §1, §2

[3] = tested on: A549, HeLa, and HepG2 human cancer cell lines; assay: Cell Titer-Glo cell growth inhibition, summary statements over all three cell lines; type: cell-based; settings: with respect to cisplatin
Protocol: as §1, §2

Compound	IC50 [1]	IC50 [2]	inhibition of cell proliferation (in words) [3]
N.N.[Cl][Pt][Cl] [Cisplatin, cisplatin]	21.4 µM	9.6 µM	
N[C@@H]1CCCC[C@H]1[PH]([Au][Cl])(c1ccccc1)c1ccccc1 [gold(I) complex 1, [Au(ACP)Cl]]			excellent inhibition of cell proliferation
CN(C)C(=S)[S][Au][PH](c1ccccc1)(c1ccccc1)[C@@H]1CCCC[C@H]1N [gold(I) complex 2]			excellent inhibition of cell proliferation; also recorded: best inhibition among the three

From patent US11142539B2, “Phosphinogold(I) complexes and methods of treating cancer” (King Fahd University of Petroleum and Minerals, priority 2020, dated 2021)
